{"source": "patent US8906925B2", "about": "“Pyrido[4,3-B]indoles containing rigid moieties” (Medivation Technologies, Inc., priority 2008, dated 2014)", "molecular_target": "human recombinant serotonin 5-HT2A receptor (Homo sapiens, UniProt P28223)", "sequence (P28223 whole entry)": "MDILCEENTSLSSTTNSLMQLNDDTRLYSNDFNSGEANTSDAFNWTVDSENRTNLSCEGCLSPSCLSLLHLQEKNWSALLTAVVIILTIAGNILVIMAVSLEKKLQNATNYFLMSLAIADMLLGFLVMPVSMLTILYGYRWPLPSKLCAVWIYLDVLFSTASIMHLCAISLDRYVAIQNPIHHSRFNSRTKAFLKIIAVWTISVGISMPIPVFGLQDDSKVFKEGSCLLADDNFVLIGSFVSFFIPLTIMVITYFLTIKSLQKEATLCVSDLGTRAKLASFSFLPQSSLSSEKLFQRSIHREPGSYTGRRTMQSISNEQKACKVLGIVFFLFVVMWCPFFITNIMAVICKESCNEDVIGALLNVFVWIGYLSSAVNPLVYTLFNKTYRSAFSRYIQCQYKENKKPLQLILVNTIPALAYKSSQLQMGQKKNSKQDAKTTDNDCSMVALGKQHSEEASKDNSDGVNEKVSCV", "assay": "5-HT2A agonist/antagonist functional assay (cytosolic Ca2+ fluorescence, HEK-293 cells)", "format": "cell-based", "from_the_text": "To determine for agonist or antagonist activity of compounds of the invention in functional assays, human recombinant serotonin 5-HT2A receptor expressed in human embryonic kidney (HEK-293) cells (Jerman J C, Brough S J, Gager T, Wood M, Coldwell M C, Smart D and Middlemiss D N, Eur J Pharmacol, 414: 23-30, 2001) or human recombinant serotonin 5-HT7 receptor expressed in CHO cells (Adham, et al. J. Pharmacol. Exp. Ther. 287:508-514, 1998) was used. Cells were suspended in DMEM buffer, and distributed in microplates. For the 5-HT2A assay, a cytoplasmic calcium fluorescent indicator which varies proportionally to the free cytosolic Ca^2+ ion concentration was mixed with probenicid in HBSS buffer complemented with 20 mM Hepes (pH 7.4), added into each well and equilibrated with the cells for 30 min. at 37° C. followed by 30 min. at 22° C. For the 5-HT7 assay, the reaction product was cAMP, detected by HTRF.\nTo measure 5-HT2A agonist effects, compounds of the invention, reference agonist or HBSS buffer (basal control) was added to the cells and changes in fluorescence intensity were measured using a microplate reader.\nThe standard reference antagonist was ketanserin (5-HT2A) or mesulergine (5-HT7), which was tested in each experiment at several concentrations to generate a concentration-response curve from which its IC50 value was calculated. […]", "note": "“And” between values parts separate entries of the source, which are not always exact repeats. Equal values may be shown once.", "data": [{"compound": "C/C(=C\\n1c2c(c3cc(Cl)ccc31)CN(C)CC2)c1ccc(F)cc1", "note": "[Compound 83, (E)-8-chloro-5-(2-(4-fluorophenyl)prop-1-enyl)-2,3,4,5-tetrahydro-2-methyl-1H-pyrido[4,3-b]indole]", "values": [{"measurement": "EC50", "value": 3.1, "unit": "µM"}, {"measurement": "IC50", "setting": "vs 3 nM 5-HT", "value": "970 nM and > 1000 nM"}]}]}
